Calls of active or inactive are those of the source. No cut-off for these calls is given here.
Key:
[1] = Rate constant (cyclization rate) in CD3CN-deuterated phosphate buffer at pH 7.4; type: ADME
[2] = Lethal dose was determined in male Swiss-Webster mice by intravenous injection using up-and-down method; type: toxicity, organism-based; conditions: mouse, in vivo
Mus musculus = assay: Peripheral muscarinic effect was evaluated in mice by intravenous injection; No visible tremors or salivation observed; type: functional, organism-based
[3] = Half life was determined; type: ADME

Question: What does the source list for `CN(CC#CCOC(=O)Nc1cccc(Cl)c1)CCBr`?
Answer: K1 [1]: 0.27 min⁻¹; LD50 [2]: 57.2 µmol/kg

Question: Which results are given for `C[N+](C)(C)CC#CCOC(=O)Nc1cccc(Cl)c1.[Cl-]`?
Answer: Activity (Mus musculus): inactive; LD50 [2]: 3.7 µmol/kg

Question: Which results are given for `CN(CC#CCOC(=O)Nc1cccc(Cl)c1)CCCl`?
Answer: K1 [1]: 0.0089 min⁻¹; K2 [1]: 0.099 min⁻¹; half-life [3]: 112 min; LD50 [2]: 166 µmol/kg

— ChEMBL document CHEMBL1125124, “Tertiary 2-haloethylamine derivatives of the muscarinic agent McN-A-343, [4-[[N-(3-chlorophenyl)carbamoyl]oxy]-2-butynyl]trimethylammonium chloride” (J Med Chem, 1990)
